Assay results from article PMC8920474 (Current Research in Chemical Biology, 2022).

Columns and labels:
TMPRSS2 = TMPRSS2 (Homo sapiens, UniProt O15393); assay: VeroE6/TMPRSS2 cell-based TMPRSS2 enzyme inhibitory assay; settings: VeroE6/TMPRSS2 cells; up to a concentration of 4.0 μM
TMPRSS2 in LNCaP cells = tested on: TMPRSS2 in LNCaP cells; parameters: species or system human; settings: read-out: IC50, LNCaP cell-based proteolytic enzyme inhibition
furin = furin (Homo sapiens, UniProt P09958); assay: Vero/furin cell-based furin enzyme inhibitory assay; settings: for furin inhibitory activity: Vero/furin cells, up to a concentration of 40.0 μM
Sequence of furin (P09958 108-794): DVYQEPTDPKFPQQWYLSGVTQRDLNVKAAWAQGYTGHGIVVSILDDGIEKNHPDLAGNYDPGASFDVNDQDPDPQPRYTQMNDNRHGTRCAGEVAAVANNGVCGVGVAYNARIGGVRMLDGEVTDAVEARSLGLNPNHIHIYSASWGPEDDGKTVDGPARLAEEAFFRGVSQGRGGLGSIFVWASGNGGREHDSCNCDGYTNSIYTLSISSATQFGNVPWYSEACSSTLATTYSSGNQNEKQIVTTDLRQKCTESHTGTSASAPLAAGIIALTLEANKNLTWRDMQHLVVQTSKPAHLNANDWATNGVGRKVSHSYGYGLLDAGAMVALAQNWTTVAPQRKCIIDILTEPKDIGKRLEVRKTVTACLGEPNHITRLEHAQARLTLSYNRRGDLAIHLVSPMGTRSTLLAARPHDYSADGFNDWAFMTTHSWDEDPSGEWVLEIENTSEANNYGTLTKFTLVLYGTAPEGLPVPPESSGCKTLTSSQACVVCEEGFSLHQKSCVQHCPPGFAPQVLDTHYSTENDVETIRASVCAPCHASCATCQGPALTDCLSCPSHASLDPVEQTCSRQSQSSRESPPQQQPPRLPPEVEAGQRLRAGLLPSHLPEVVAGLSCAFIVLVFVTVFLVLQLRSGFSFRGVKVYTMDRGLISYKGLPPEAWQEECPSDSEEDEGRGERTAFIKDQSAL

Sequence of TMPRSS2 (O15393 whole entry): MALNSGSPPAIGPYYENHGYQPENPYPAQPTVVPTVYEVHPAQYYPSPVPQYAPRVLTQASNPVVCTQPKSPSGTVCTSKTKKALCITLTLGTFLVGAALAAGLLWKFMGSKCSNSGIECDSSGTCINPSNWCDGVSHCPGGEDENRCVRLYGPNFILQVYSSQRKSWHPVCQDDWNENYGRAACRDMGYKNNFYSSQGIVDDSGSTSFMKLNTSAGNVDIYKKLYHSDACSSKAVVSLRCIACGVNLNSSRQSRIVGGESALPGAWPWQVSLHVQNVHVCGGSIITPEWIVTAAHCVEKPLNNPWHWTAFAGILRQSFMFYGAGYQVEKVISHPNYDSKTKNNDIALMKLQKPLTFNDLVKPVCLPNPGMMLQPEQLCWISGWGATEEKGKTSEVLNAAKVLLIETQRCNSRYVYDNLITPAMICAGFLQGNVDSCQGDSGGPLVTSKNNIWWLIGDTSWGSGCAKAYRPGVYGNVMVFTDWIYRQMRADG

## CN(Cc1cc(Br)cc(Br)c1N)C1CCCCC1 [Bromhexine, bromhexine]
TMPRSS2
  TMPRSS2 inhibitory activity: inactive

## CN(C)C(=O)COC(=O)Cc1ccc(OC(=O)c2ccc(NC(=N)N)cc2)cc1 [camostat]
TMPRSS2 in LNCaP cells
  IC50: 0.026 ± 0.03 µM
furin
  furin inhibitory activity: inactive

## N=C(N)c1ccc(/N=N/Nc2ccc(C(=N)N)cc2)cc1 [diminazene]
furin
  IC50: 13.2 µM

## N=C(N)c1ccc2cc(OC(=O)c3ccc(N=C(N)N)cc3)ccc2c1 [nafamostat]
furin
  furin inhibitory activity: inactive
